Data taken from patent US20200032249A1, “LABELING, ISOLATION, & ANALYSIS OF RNA FROM RARE CELL POPULATIONS” (priority 2017, published 2020).

Tested on: MDA231 cells expressing CD/UPRT
Experiment: Flura-tagged mRNA immunoprecipitation from MDA231 CD/UPRT cells co-cultured with mouse 4T1 cells, RT-PCR
Format: cell-based, human
Conditions: 12 h, 100-1000 MDA231 cells to 10^6 4T1 cells
Description: FIG. 1a-f. Labeling and purification of RNA by CD expression and 5-FC treatment. FIG. 1a—Schematic diagram showing RNA labeling using CD and 5-FC. FIG. 1b—Chemical reactions steps involved in the labeling of RNA using CD and 5-FC. The dotted arrow indicates the intermediary steps that are not shown. FIG. 1c Relative fold enrichment of mRNA isolated by Flura-tagging. 293T cells expressing CD or unlabeled controls were treated with 5-FC for the indicated times, labeled mRNAs were immunopurified using anti-BrdU antibody, and the levels of labeled mRNAs of the indicated genes relative to corresponding non-immunoprecipitated inputs normalized to immunopurified mRNAs from cells not expressing CD were quantified by RT-PCR. […] Cells were analyzed by immunofluorescence or harvested for RNA analysis. […] The fold enrichment of the indicated representative human genes over mouse housekeeping genes (mHPRT1 and mLDH1) was measured by RT-PCR (n=3±S.E.). […]
Next, we determined whether this system could be used to isolate RNA specifically from cells of interest that were admixed with a large proportion of other cells. […] After 12 h of 5-FC addition, 5-FU-labeled mRNAs were immunoprecipitated, and the proportion of human and mouse mRNA for representative housekeeping genes were determined by reverse transcriptase-polymerase chain reaction (RT-PCR). […]

## Nc1nc(=O)[nH]cc1F [5-FC, 5-fluorocytosine]
  enrichment of human mRNAs compared to mouse mRNAs: more than 10^5 fold
